Measured values taken from patent US11077092B2, “Methods of treating diabetes by administering a glucagon receptor antagonist in combination with a cholesterol absorption inhibitor” (Merck Sharp & Dohme Corp., priority 2012, dated 2021).

Columns and labels:
hGCGR mice [1] = experiment: Combination treatment of GRAs with ezetimibe in hGCGR mice (Example 9); assay type: in vivo; details: for plasma total cholesterol: GRA alone 30 mpk QD for 9 days
From the text: FIGS. 15A-B illustrate total plasma cholesterol (FIG. 15A) and cholesterol absorption (FIG. 15B) upon sub-chronic treatment of hGCGR mice with vehicle. GRA Compound A (30 mpk), ezetimibe (10 mpk), or Compound A (30 mpk)+ezetimibe (10 mpk) QD for 9 days.
FIGS. 16A-B illustrate total plasma cholesterol (FIG. 16A) and cholesterol absorption (FIG. 16B) upon sub-chronic treatment of hGCGR mice with vehicle, GRA Compound D (30 mpk), Compound E (30 mpk), Compound D (30 mpk)+ezetimibe (10 mpk), or Compound E (30 mpk)+ezetimibe (10 mpk) QD for 9 days.
A similar protocol was deployed in this part of work except ezetimibe was added to the combination treatment groups. Briefly, male hGCGR mice at ˜12 wks of age were treated with vehicle, ezetimibe@10 mpk, Compound A@30 mpk, Compound D@30 mpk, Compound E@30 mpk, Compound A@30 mpk+ezetimibe@10 mpk, Compound D@30 mpk+ezetimibe@10 mpk, Compound E@30 mpk+ezetimibe@10 mpk. Plasma total cholesterol, phytosterol, cholesterol absorption, and cholesterol synthesis were quantified using the same assays as described before.

hGCGR mice [2] = experiment: Dual tracer study for cholesterol absorption in hGCGR mice (Example 4); assay type: in vivo; details: 30 mpk QD for 9 days
Procedure: Male hGCGR mice at ˜12 wks of age maintained on chow or high cholesterol diet (n=8 group) were treated with vehicle and GRA Compound A@30 mpk QD for 9 days. Twenty four-hour feces before treatment and 3 days after treated were collected for fecal cholesterol characterization. On Day 4, mice were dosed with vehicle (0.5% MC, BID) or Compound A followed by administration with D6-cholesterol@15 mpk through p.o. and 13C-cholesterol@15 mpk through i.v. Blood was collected at 4, 24, 48, 72, and 96 h post injection by tail bleeding. For cholesterol synthesis, D2O was administered i.p. at 20 ml/kg on Day 7. On day 8, tail blood was collected for PK and mice were taken down for blood and liver collection. Plasma was isolated from blood by centrifuge at 8000 rpm for 5 min and submitted for GC/MS assay for cholesterol synthesis and absorption. Feces were sent to Taconic for fecal cholesterol assay. Asterisks denote statistical significance between treatment and vehicle groups. * p<0.05, **p<0.01, and ***p<0.001 by ANOVA.

hGCGR mice [3] = experiment: hGCGR mice, 5 day treatment with GRA Compound A and positive control LXR agonist (Example 2): plasma total cholesterol and LDL-c; assay type: in vivo; details: comparing with vehicle
From the text: FIG. 6 illustrates plasma levels of total cholesterol and LDL-c in hGCGR mice following a 5 day treatment with GRA Compound A and positive control LXR agonist.
It is important to note that lipoprotein profiles of mouse and human are fundamentally different. In mice, the major lipoproteins are in HDL while in humans the main lipoproteins are in LDL-c. In preclinical studies, hGCGR mice were used as the model for in vivo study. Plasma level of total cholesterol was used as a more reliable parameter to indicate the effect of GRAS on cholesterol metabolism.

hGCGR mice [4] = experiment: Sub-chronic treatment of hGCGR mice with GRA (Example 1): plasma total cholesterol, phytosterols, lathosterol, cholesterol synthesis; assay type: in vivo; details: 30 mpk QD for 5 days, vs vehicle
Procedure: Male hGCGR mice (Transgenic Research, 8:295-302, 1999) at ˜12 wks of age maintained on chow diet were treated with vehicle and GRA Compounds A, B, and C at 30 mpk QD for 5 days (n=8). On Day 1, mice were administered the compounds followed by glucagon-induced glucose tolerance test. On Day 5, mice were fasted at 7:30 am. After dosing at ˜9:00 am, the blood glucose was measured at 2-h post dose with a glucometer; see FIG. 1. At 6-h post dose, the tail blood was collected for PK measurement. Mice were euthanized with CO2, and blood was collected by cardiac puncture. The liver was snap frozen in liquid nitrogen with a freezing clamp and saved in −80° C. Plasma was isolated by centrifuging the blood at 8000 rpm for 5 min. The plasma level of total cholesterol was measured by biochemical assay (Wako Chemicals Inc.). The plasma level of lathosterol and phytosterol was measured by LC/MS. To determine cholesterol synthesis. D2O was administered i.p. at 20 ml/kg on 24 h prior to takedown of the mice. The level of D2 in plasma water and plasma cholesterol was assayed by GC/MS for cholesterol synthesis. Asterisks denote statistical significance between treatment and vehicle groups.

hGCGR mice [5] = experiment: Sub-chronic study of Compound D in hGCGR mice: glucagon-induced glucose tolerance test and plasma phytosterols (Example 5); assay type: in vivo; details: 3 and 10 mpk, Day 1
Procedure: Male wild type and hGCGR mice on chow diet were treated with vehicle or GRA Compound D@3 and 10 mpk. On Day 1, mice were administered vehicle or Compound D followed by a glucagon-induced glucose tolerance test. On Day 5, mice were fasted at 7:30 am. After dosing at ˜9:00 am, blood glucose was measured at 2-h post dose with a glucometer. At 6-h post dose, tail blood was collected for a PK measurement. Mice were euthanized with CO2, and blood was collected by cardiac puncture. The liver was snap frozen in liquid nitrogen with a freezing clamp and saved in −80° C.
Plasma was isolated by centrifuging the blood at 8000 rpm for 5 min. Plasma level of total cholesterol was measured by an enzymatic colorimetric method (Wako Chemicals Inc.). Plasma levels of lathosterol and Phytosterol was measured by LC/MS.

type 2 diabetic patients = assay type: in vivo, human
Procedure: In phase 2b trial studies of Compound D, the average plasma levels of LDL-c in the placebo, Compound D@20, 40, 60, 80 mg, and metformin@2 g groups were 112.3, 117.7, 117.3, 110.0, 111.9, and 113.8 mg/dl at baseline, respectively. Plasma levels of LDL-c of the majority of the patients were within the normal range (≤130 mg/dl) according to the guideline of the American Heart Association and Mayo Clinic. After 12-week treatment, the average plasma levels of LDL-c were 105.4, 117.7, 123.2, 119.7, 126.6, and 111.1 mg/dl, respectively.
The following table illustrates the plasma levels of LDL-c in the patients in the phase 2b trial of Compound D. Type 2 diabetic patients with fasting glucose level of 140 to 240 mg/dl were recruited to the phase 2b trial of Compound D. After a 6-wk washout of any previous anti-hyperglycemic agents, patients were treated with placebo, Compound D QD@20, 40, 60, and 80 mg, and metformin BID@1 g for 12 wks. Values in bold are the percentage of patients on Day-1 and wk 12 less than or equal to the designated cutoff values at 130, 110, 100, and 70 mg/dl.
The baseline plasma level of LDL-c (Day -1) was plotted with the % change of LDL-c at week 12 from baseline.
In the 46 patients on Compound D@60 mg in the phase 2b trial, 14 patients were on statins during the 12-wk trial. […] LDL-c (despite the presence of the statin); see FIG. 17.

[6] = ezetimibe 10 mpk combined with Compound A, D or E 30 mpk, QD for 9 days

## COc1ccc2cc(-c3cc(-c4cc(C(F)(F)F)ccc4F)nn3[C@@H](C)c3ccc(C(=O)NCCC(=O)O)cc3)ccc2c1 [Compound A]
hGCGR mice [1]
  plasma total cholesterol: significantly increased or tended to increase
hGCGR mice [2]
  plasma total cholesterol: significantly increased
hGCGR mice [3]
  plasma level of LDL-c: significantly increased
  plasma level of total cholesterol: significantly increased
hGCGR mice [4]
  plasma total cholesterol: induced

## Cc1cc(OC(CCC(F)(F)F)c2ccc(C(=O)NCCC(=O)O)cc2)cc(C)c1-c1ccc(C(C)(C)C)cc1 (stereo not shown) [Compound B, 3-{4-[1-(4′-tert-butyl-2,6-dimethyl-biphenyl-4-yloxy)-4,4,4-trifluoro-butyl]-benzoylamino}-propionic acid]
hGCGR mice [4]
  plasma total cholesterol: induced

## Cc1cc(OC(CCC(C)(C)C)c2ccc(C(=O)NCCC(=O)O)cc2)cc(C)c1-c1ccc(C(F)(F)F)cc1 (stereo not shown) [Compound C, 3-{4-[1-(2,6-Dimethyl-4′-trifluoromethyl-biphenyl-4-yloxy)-4,4-dimethyl-pentyl]-benzoylamino}-propionic acid]
hGCGR mice [4]
  plasma total cholesterol: induced

## COc1ccc2cc(-c3cc(-c4cc(Cl)cc(Cl)c4)nn3[C@@H](C)c3ccc(C(=O)NCCC(=O)O)cc3)ccc2c1 [Compound D, N-(4-{(1S)-1-[3-(3,5-dichlorophenyl)-5-(6-methoxy-2-naphthyl)-1H-pyrazol-1-yl]ethyl}benzoyl)-β-alanine]
hGCGR mice [1]
  plasma total cholesterol: significantly increased or tended to increase
hGCGR mice [5]
  glucagon-induced glucose excursion: suppressed
Type 2 diabetic patients; 60 mg, 12-wk trial, in most patients
  blood glucose levels: substantial reduction

## CCC[C@H](c1ccc(C(=O)NCCC(=O)O)cc1)[C@H](c1ccc(Cl)cc1)c1c[nH]c2c(F)cc(C)cc12 [Compound E, N-(4-{(1S)-1-[(R)-(4-chlorophenyl)(7-fluoro-5-methyl-1H-indol-3-yl)methyl]butyl}benzoyl)-β-alanine]
hGCGR mice [1]
  plasma total cholesterol: significantly increased or tended to increase

## O=S(=O)(c1ccccc1)N(CC(F)(F)F)c1ccc(C(O)(C(F)(F)F)C(F)(F)F)cc1 [Compound T, reference compound]
hGCGR mice [3]
  plasma level of LDL-c: significantly increased
  plasma level of total cholesterol: significantly increased

## CN(C)C(=N)N=C(N)N [Metformin, metformin, reference compound]
Type 2 diabetic patients; human, in vivo
  average plasma level of LDL-c: 113.8 mg/dL
  increase of LDL-c after 12-week treatment: 2.2%
  percentage of patients with plasma LDL-c less than or equal to 110 mg/dl: 54.2 percentage
  percentage of patients with plasma LDL-c less than or equal to 130 mg/dl: 70.8 percentage

## O=C1[C@H](CC[C@H](O)c2ccc(F)cc2)[C@@H](c2ccc(O)cc2)N1c1ccc(F)cc1 [ezetimibe, reference compound]
hGCGR mice [1]; [6]
  induction of cholesterol absorption caused by GRAs: prevented the induction
  induction of total cholesterol caused by GRAs: prevented the induction
